The experiment deals with T1, catalytic domain of human PARP14 (residues 1611 to 1801) with NanoLuc tag (Homo sapiens, UniProt Q460N5).
T1 construct: expressed in transfected cells; host or cells: HEK-293T cells (ATCC), plasmid pRTX240 in pcDNA3.1(-)
T1 sequence (Q460N5 1611-1801): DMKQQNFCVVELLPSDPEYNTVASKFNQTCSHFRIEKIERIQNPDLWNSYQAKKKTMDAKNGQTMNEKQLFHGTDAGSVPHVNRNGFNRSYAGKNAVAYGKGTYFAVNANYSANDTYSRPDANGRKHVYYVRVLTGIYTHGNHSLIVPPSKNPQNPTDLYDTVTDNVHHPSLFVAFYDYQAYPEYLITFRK
Description: NanoLuc assay for the degradation of PARP14. In kind it is cell-based. The note with it: Assay A; NanoLuc-PARP14 overexpressed in HEK-293T cells; 2 hours at 37 degrees; luminescence. On the procedure: The catalytic domain of human PARP14 (residues 1611 to 1801, GenBank Accession No. NM_017554) was inserted into the pcDNA3.1(−) vector. The insert also contained a NanoLuc tag on the N terminus of the PARP14 protein.
Degradation of PARP14 protein was assessed using measurement of the NanoLuc tag as proxy for the PARP14 protein. PARP14 with NanoLuc tag was overexpressed in […] cells (ATCC) using the plasmid described in Table 1. Plasmid DNA was diluted in empty vector DNA then added to 1.163 mL of phenol red free OptiMEM (Thermo Fisher). Plasmid DNA concentrations used in each assay described in Table 1. The plasmid DNA was mixed with 78.5 μL of Fugene HD (Promega) and allowed to incubate 5 minutes.
Next, 1.125 mL were added to 10 million 293T cells in DMEM (Thermo Fisher) supplemented with 10% FBS (VWR) and 1× Glutamax (Gibco). The transfection was incubated for 24 hrs at 37 degrees in an incubator supplemented with 5% CO2. The cells were then trypsinized and brought up in phenol red free OptiMEM media. Transfected HEK-293T cells were diluted to […] and then added to assay plate (Corning 3574) using a Multidrop (Thermo Fisher) to add 40 μL per well of the 384 well plate, resulting in 5,000 cells per well. 40 nL of a dose response curve diluted in DMSO of each test compound was added to the cell plate using a Mosquito (TTP Labtech) and the plate was incubated at 37 degrees for 2 hours. Assay plate was brought to room temperature then 20 μL per well of NanoGlo (Promega) was added to the plate. Luminescence was measured on an Envision (Perkin Elmer).
The average DMSO was calculated from 32 wells containing 0.1% DMSO only in columns 12 and 24 of the assay plate. The % of DMSO values were calculated as described below: […]
The % of DMSO values were plotted as a function of compound concentration and the following 4-parameter fit was applied to derive the DC50 values:
where top, bottom, and Hill Coefficient are allowed to float. Y is the % of DMSO and X is the compound concentration.
DC50 data for the Example compounds is provided below in Table 2 (“+” is <0.1 μM; “++” is ≥0.1 μM and <1 μM; and “+++” is ≥1 μM).
Take `O=C(CN1CCC(SCc2nc3cc(OCC4CCOCC4)cc(F)c3c(=O)[nH]2)CC1)NCCN1CCC(c2cccc(NC3CCC(=O)NC3=O)c2)CC1` (stereo not shown) [Example 15, N-(2-(4-(3-((2,6-dioxopiperidin-3-yl)amino)phenyl)piperidin-1-yl)ethyl)-2-(4-(((5-fluoro-4-oxo-7-((tetrahydro-2H-pyran-4-yl)methoxy)-3,4-dihydroquinazolin-2-yl)methyl)thio)piperidin-1-yl)acetamide]: the half-maximal degradation concentration (DC50) (as a rule, the concentration giving 50% degradation) was less than 100 nM. `CC(=O)N1CCC(COc2cc(F)c3c(=O)[nH]c(CSC4CCN(CC5CN(c6cccc7c6CN(C6CCC(=O)NC6=O)C7=O)C5)CC4)nc3c2)CC1` (stereo not shown) [Example 41, 3-(4-(3-((4-(((7-((1-acetylpiperidin-4-yl)methoxy)-5-fluoro-4-oxo-3,4-dihydroquinazolin-2-yl)methyl)thio)piperidin-1-yl)methyl)azetidin-1-yl)-1-oxoisoindolin-2-yl)piperidine-2,6-dione] registered a DC50 of less than 100 nM. Regarding `CC(=O)N1CCC(COc2cc(F)c3c(=O)[nH]c(CSC4CCN(CC#Cc5cccc6c5n(C)c(=O)n6C5CCC(=O)NC5=O)CC4)nc3c2)CC1` (stereo not shown) [Example 35, 3-(4-(3-(4-(((7-((1-acetylpiperidin-4-yl)methoxy)-5-fluoro-4-oxo-3,4-dihydroquinazolin-2-yl)methyl)thio)piperidin-1-yl)prop-1-yn-1-yl)-3-methyl-2-oxo-2,3-dihydro-1H-benzo[d]imidazol-1-yl)piperidine-2,6-dione], the 50% degradation concentration (DC50) is less than 100 nM.

As for `O=C(CN1CCC(SCc2nc3cc(OCC4CCOCC4)cc(F)c3c(=O)[nH]2)CC1)NCCCCCCN1CCC(c2ccc(NC3CCC(=O)NC3=O)cc2)CC1` (stereo not shown) [Example 5, N-(6-(4-(4-((2,6-dioxopiperidin-3-yl)amino)phenyl)piperidin-1-yl)hexyl)-2-(4-(((5-fluoro-4-oxo-7-((tetrahydro-2H-pyran-4-yl)methoxy)-3,4-dihydroquinazolin-2-yl)methyl)thio)piperidin-1-yl)acetamide], the 50% degradation concentration (DC50) is less than 100 nM. Compound `CC(=O)N1CCC(COc2cc(F)c3c(=O)[nH]c(CSC4CCN(CC(=O)Nc5cccc6c5C(=O)N(C5CCC(=O)NC5=O)C6=O)CC4)nc3c2)CC1` (stereo not shown) [Example 31, 2-(4-(((7-((1-acetylpiperidin-4-yl)methoxy)-5-fluoro-4-oxo-3,4-dihydroquinazolin-2-yl)methyl)thio)piperidin-1-yl)-N-(2-(2,6-dioxopiperidin-3-yl)-1,3-dioxoisoindolin-4-yl)acetamide] had a DC50 of 100 to 1000 nM. For `CC(=O)N1CCC(COc2cc(F)c3c(=O)[nH]c(CSC4CCN(CC5CCN(c6ccc7c(c6)C(=O)N(C6CCC(=O)NC6=O)C7=O)CC5)CC4)nc3c2)CC1` (stereo not shown) [Example 33, 5-(4-((4-(((7-((1-acetylpiperidin-4-yl)methoxy)-5-fluoro-4-oxo-3,4-dihydroquinazolin-2-yl)methyl)thio)piperidin-1-yl)methyl)piperidin-1-yl)-2-(2,6-dioxopiperidin-3-yl)isoindoline-1,3-dione] the value was less than 100 nM. Turning to `CC(=O)N1CCC(COc2cc(F)c3c(=O)[nH]c(CSC4CCN(CC#Cc5ccc(N6CCC(=O)NC6=O)cc5)CC4)nc3c2)CC1` [Example 37, 1-(4-(3-(4-(((7-((1-acetylpiperidin-4-yl)methoxy)-5-fluoro-4-oxo-3,4-dihydroquinazolin-2-yl)methyl)thio)piperidin-1-yl)prop-1-yn-1-yl)phenyl)dihydropyrimidine-2,4(1H,3H)-dione], the DC50 was less than 100 nM. For `O=C(CN1CCC(SCc2nc3cc(OCC4CCOCC4)cc(F)c3c(=O)[nH]2)CC1)NCCCCCCNC(=O)c1cccc(N2CCC(=O)NC2=O)c1` [Example 3, 3-(2,4-dioxotetrahydropyrimidin-1(2H)-yl)-N-(6-(2-(4-(((5-fluoro-4-oxo-7-((tetrahydro-2H-pyran-4-yl)methoxy)-3,4-dihydroquinazolin-2-yl)methyl)thio)piperidin-1-yl)acetamido)hexyl)benzamide] the value was less than 100 nM; for `CC(=O)N1CCC(COc2cc(F)c3c(=O)[nH]c(CSC4CCN(CC(=O)Nc5ccc6c(c5)C(=O)N(C5CCC(=O)NC5=O)C6=O)CC4)nc3c2)CC1` (stereo not shown) [Example 32, 2-(4-(((7-((1-acetylpiperidin-4-yl)methoxy)-5-fluoro-4-oxo-3,4-dihydroquinazolin-2-yl)methyl)thio)piperidin-1-yl)-N-(2-(2,6-dioxopiperidin-3-yl)-1,3-dioxoisoindolin-5-yl)acetamide], less than 100 nM; for `O=C(CN1CCC(SCc2nc3cc(OCC4CCOCC4)cc(F)c3c(=O)[nH]2)CC1)NCC(=O)N1CCC(c2ccc(NC3CCC(=O)NC3=O)cc2)CC1` (stereo not shown) [Example 10, N-(2-(4-(4-((2,6-dioxopiperidin-3-yl)amino)phenyl)piperidin-1-yl)-2-oxoethyl)-2-(4-(((5-fluoro-4-oxo-7-((tetrahydro-2H-pyran-4-yl)methoxy)-3,4-dihydroquinazolin-2-yl)methyl)thio)piperidin-1-yl)acetamide], less than 100 nM.

`O=C(CN1CCC(SCc2nc3cc(OCC4CCOCC4)cc(F)c3c(=O)[nH]2)CC1)NCCCCN1CCC(c2cccc(NC3CCC(=O)NC3=O)c2)CC1` (stereo not shown) [Example 13, N-(4-(4-(3-((2,6-dioxopiperidin-3-yl)amino)phenyl)piperidin-1-yl)butyl)-2-(4-(((5-fluoro-4-oxo-7-((tetrahydro-2H-pyran-4-yl)methoxy)-3,4-dihydroquinazolin-2-yl)methyl)thio)piperidin-1-yl)acetamide] gave a DC50 of less than 100 nM. The compound `O=C(CN1CCC(SCc2nc3cc(OCC4CCOCC4)cc(F)c3c(=O)[nH]2)CC1)NCCCC(=O)N1CCC(c2ccc(NC3CCC(=O)NC3=O)cc2)CC1` (stereo not shown) [Example 8, N-(4-(4-(4-((2,6-dioxopiperidin-3-yl)amino)phenyl)piperidin-1-yl)-4-oxobutyl)-2-(4-(((5-fluoro-4-oxo-7-((tetrahydro-2H-pyran-4-yl)methoxy)-3,4-dihydroquinazolin-2-yl)methyl)thio)piperidin-1-yl)acetamide] came in with a 50% degradation concentration (DC50) of less than 100 nM. For `CC(=O)N1CCC(COc2cc(F)c3c(=O)[nH]c(CSC4CCN(C(=O)CNc5cccc6c5C(=O)N(C5CCC(=O)NC5=O)C6=O)CC4)nc3c2)CC1` (stereo not shown) [Example 21, 4-((2-(4-(((7-((1-acetylpiperidin-4-yl)methoxy)-5-fluoro-4-oxo-3,4-dihydroquinazolin-2-yl)methyl)thio)piperidin-1-yl)-2-oxoethyl)amino)-2-(2,6-dioxopiperidin-3-yl)isoindoline-1,3-dione], the DC50 was less than 100 nM. Compound `CC(=O)N1CCC(COc2cc(F)c3c(=O)[nH]c(CSC4CCN(C(=O)CNc5ccc6c(c5)C(=O)N(C5CCC(=O)NC5=O)C6=O)CC4)nc3c2)CC1` (stereo not shown) [Example 24, 5-((2-(4-(((7-((1-acetylpiperidin-4-yl)methoxy)-5-fluoro-4-oxo-3,4-dihydroquinazolin-2-yl)methyl)thio)piperidin-1-yl)-2-oxoethyl)amino)-2-(2,6-dioxopiperidin-3-yl)isoindoline-1,3-dione] showed a 50% degradation concentration (DC50) of less than 100 nM. On to `O=C1CCC(N2C(=O)c3cccc(N4CCN(CC5CCN(C(=O)CN6CCC(SCc7nc8cc(NC9CCCC9)cc(F)c8c(=O)[nH]7)CC6)CC5)CC4)c3C2=O)C(=O)N1` (stereo not shown) [Example 1, 4-(4-((1-(2-(4-(((7-(cyclopentylamino)-5-fluoro-4-oxo-3,4-dihydroquinazolin-2-yl)methyl)thio)piperidin-1-yl)acetyl)piperidin-4-yl)methyl)piperazin-1-yl)-2-(2,6-dioxopiperidin-3-yl)isoindoline-1,3-dione], for which the DC50 was less than 100 nM. `CC(=O)N1CCC(COc2cc(F)c3c(=O)[nH]c(CSC4CCN(c5ccc6c(c5)C(=O)N(C5CCC(=O)NC5=O)C6=O)CC4)nc3c2)CC1` (stereo not shown) [Example 30, 5-(4-(((7-((1-acetylpiperidin-4-yl)methoxy)-5-fluoro-4-oxo-3,4-dihydroquinazolin-2-yl)methyl)thio)piperidin-1-yl)-2-(2,6-dioxopiperidin-3-yl)isoindoline-1,3-dione] returned a DC50 of less than 100 nM.
